Tests used:
[1] = biological target: T1, Bifunctional epoxide hydrolase 2 (Mus musculus, UniProt P34914); experiment: Inhibition of recombinant mouse soluble epoxide hydrolase using PHOME as substrate assessed as 6-methoxynaphthaldehyde product formation preincubated with compound for 10 mins followed by substrate addition and measured by fluorescence based analysis
T1 sequence (P34914 whole entry): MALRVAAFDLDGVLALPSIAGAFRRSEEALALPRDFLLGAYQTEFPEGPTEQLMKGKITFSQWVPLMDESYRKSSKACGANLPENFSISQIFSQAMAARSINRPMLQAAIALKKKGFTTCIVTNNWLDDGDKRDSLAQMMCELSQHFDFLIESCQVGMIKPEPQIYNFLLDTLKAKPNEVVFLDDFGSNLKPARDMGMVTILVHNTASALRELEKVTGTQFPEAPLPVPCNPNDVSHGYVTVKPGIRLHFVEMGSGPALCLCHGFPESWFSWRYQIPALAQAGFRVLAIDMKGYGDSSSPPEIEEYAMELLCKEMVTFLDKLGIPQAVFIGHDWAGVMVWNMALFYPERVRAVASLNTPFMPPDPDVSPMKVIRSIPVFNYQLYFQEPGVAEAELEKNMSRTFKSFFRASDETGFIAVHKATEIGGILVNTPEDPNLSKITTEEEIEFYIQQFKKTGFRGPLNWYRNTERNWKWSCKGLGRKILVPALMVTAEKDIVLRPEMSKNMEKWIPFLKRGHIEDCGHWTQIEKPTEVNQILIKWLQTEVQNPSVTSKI

[2] = biological target: T2, Bifunctional epoxide hydrolase 2 (Homo sapiens, UniProt P34913); experiment: Inhibition of recombinant human soluble epoxide hydrolase using PHOME as substrate assessed as 6-methoxynaphthaldehyde product formation preincubated with compound for 10 mins followed by substrate addition and measured by fluorescence based analysis
T2 sequence (P34913 whole entry): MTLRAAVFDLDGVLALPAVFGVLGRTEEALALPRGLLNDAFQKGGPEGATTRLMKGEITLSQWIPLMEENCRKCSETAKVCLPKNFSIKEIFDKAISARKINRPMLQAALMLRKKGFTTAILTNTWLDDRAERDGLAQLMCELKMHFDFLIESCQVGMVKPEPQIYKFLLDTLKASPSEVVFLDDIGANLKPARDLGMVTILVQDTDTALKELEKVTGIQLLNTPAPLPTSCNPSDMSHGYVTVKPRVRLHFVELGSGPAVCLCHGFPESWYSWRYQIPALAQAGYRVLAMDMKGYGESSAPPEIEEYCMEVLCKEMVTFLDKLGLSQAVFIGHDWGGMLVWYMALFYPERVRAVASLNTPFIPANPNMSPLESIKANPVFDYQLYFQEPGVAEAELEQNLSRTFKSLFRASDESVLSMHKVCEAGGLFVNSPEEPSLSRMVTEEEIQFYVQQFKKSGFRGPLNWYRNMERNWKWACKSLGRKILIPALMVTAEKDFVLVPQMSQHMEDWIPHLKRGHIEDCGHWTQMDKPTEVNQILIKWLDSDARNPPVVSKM

[3] = Apparent volume of distribution in Sprague-Dawley rat at 10 mg/kg, iv administered as single dose and measured upto 8 hrs by HPLC analysis; assay type: ADME, organism-based; settings: in vivo
[4] = Toxicity in LPS-induced C57BL/6 sepsis mouse model assessed as survival rate at 5 mg/kg, ip administered at 4 and 12 hrs post LPS-induction and measured after 35 hrs relative to control; assay type: organism-based; settings: in vivo
[5] = Metabolic stability in human liver microsomes assessed as half-life measured upto 60 mins in the presence of NADPH generating system by HPLC analysis; assay type: ADME, Microsome; settings: 1 h
[6] = Toxicity in mouse assessed as effect on body weight at 200 mg/kg, po administered for 7 days; assay type: organism-based; settings: in vivo, 168 h, time 7 day
[7] = Microsomal stability in Sprague-Dawley rat liver microsomes assessed as mean compound concentration measured after 10 mins in the presence of NADPH-generating system by HPLC analysis (Rvb= 100 ug/ml); assay type: ADME, Microsome
[8] = Cmax in Sprague-Dawley rat at 10 mg/kg, iv administered as single dose and measured upto 8 hrs by HPLC analysis; assay type: ADME, organism-based; design: time < 8 hrs, dose 10 mg/kg, route iv; settings: in vivo
[9] = Apparent volume of distribution in Sprague-Dawley rat at 50 mg/kg, po administered as single dose and measured upto 8 hrs by HPLC analysis; assay type: ADME, organism-based; settings: in vivo
[10] = Toxicity in LPS-induced C57BL/6 sepsis mouse model assessed as survival rate at 5 mg/kg, ip administered at 4 and 12 hrs post LPS-induction and measured after 28 hrs relative to control; assay type: organism-based; settings: in vivo
[11] = AUC (0 to 8 hrs) in Sprague-Dawley rat at 10 mg/kg, iv administered as single dose and measured upto 8 hrs by HPLC analysis; assay type: ADME, organism-based; design: time < 8 hrs, dose 10 mg/kg, route iv; settings: in vivo
[12] = Toxicity in mouse assessed as tolerance by measuring adverse events at 200 mg/kg, po administered for 7 days; assay type: organism-based; settings: in vivo, 168 h, time 7 day
[13] = Half-life in Sprague-Dawley rat at 50 mg/kg, po administered as single dose and measured upto 8 hrs by HPLC analysis; assay type: ADME, organism-based; settings: in vivo
[14] = Metabolic stability in Sprague-Dawley rat liver microsomes assessed as half-life measured upto 60 mins in the presence of NADPH generating system by HPLC analysis; assay type: ADME, Microsome; settings: 1 h
[15] = Oral bioavailability in Sprague-Dawley rat at 50 mg/kg administered as single dose and measured upto 8 hrs by HPLC analysis; assay type: ADME, organism-based; settings: in vivo
[16] = Clearance in Sprague-Dawley rat at 10 mg/kg, iv administered as single dose and measured upto 8 hrs by HPLC analysis; assay type: ADME, organism-based; settings: in vivo
[17] = Microsomal stability in Sprague-Dawley rat liver microsomes assessed as mean compound concentration measured after 60 mins in the presence of NADPH-generating system by HPLC analysis (Rvb= 100 ug/ml); assay type: ADME, Microsome; settings: 1 h
[18] = Clearance in Sprague-Dawley rat at 50 mg/kg, po administered as single dose and measured upto 8 hrs by HPLC analysis; assay type: ADME, organism-based; settings: in vivo
[19] = Cmax in Sprague-Dawley rat at 50 mg/kg, po administered as single dose and measured upto 8 hrs by HPLC analysis; assay type: ADME, organism-based; design: time < 8 hrs, dose 50 mg/kg, route po; settings: in vivo
[20] = Protein binding in Sprague-Dawley rat plasma by equilibrium dialysis; assay type: ADME, cell-free
[21] = Tmax in Sprague-Dawley rat at 10 mg/kg, iv administered as single dose and measured upto 8 hrs by HPLC analysis; assay type: ADME, organism-based; settings: in vivo
[22] = AUC (0 to infinity) in Sprague-Dawley rat at 50 mg/kg, po administered as single dose and measured upto 8 hrs by HPLC analysis; assay type: ADME, organism-based; design: time < 8 hrs, dose 50 mg/kg, route po; settings: in vivo
[23] = Half-life in Sprague-Dawley rat at 10 mg/kg, iv administered as single dose and measured upto 8 hrs by HPLC analysis; assay type: ADME, organism-based; settings: in vivo
Mus musculus [24] = experiment: (§1) Anti-inflammatory activity in L-arginine-induced acute pancreatitis kunming mouse model assessed as reversal of L-arginine induced pancreatic injury by measuring total score at 3 mg/kg, ip pre-treated with L-arginine for 14 hrs followed by compound treatment and measured after 10 hrs by histologic scoring analysis (reference value: 6.25 +/- 0.96); assay type: functional
[25] = Microsomal stability in human liver microsomes assessed as mean compound concentration measured after 30 mins in the presence of NADPH-generating system by HPLC analysis (Rvb= 100 ug/ml); assay type: ADME, Microsome; settings: 0.5 h
[26] = Microsomal stability in Sprague-Dawley rat liver microsomes assessed as mean compound concentration measured after 30 mins in the presence of NADPH-generating system by HPLC analysis (Rvb= 100 ug/ml); assay type: ADME, Microsome; settings: 0.5 h
Mus musculus [27] = experiment: as §1, with “8” for “3”; assay type: functional
[28] = AUC (0 to infinity) in Sprague-Dawley rat at 10 mg/kg, iv administered as single dose and measured upto 8 hrs by HPLC analysis; assay type: ADME, organism-based; design: dose 10 mg/kg, time < 8 hrs, route iv; settings: in vivo
[29] = Tmax in Sprague-Dawley rat at 50 mg/kg, po administered as single dose and measured upto 8 hrs by HPLC analysis; assay type: ADME, organism-based; settings: in vivo
[30] = Microsomal stability in human liver microsomes assessed as mean compound concentration measured after 60 mins in the presence of NADPH-generating system by HPLC analysis (Rvb= 100 ug/ml); assay type: ADME, Microsome; settings: 1 h
[31] = AUC (0 to 8 hrs) in Sprague-Dawley rat at 50 mg/kg, po administered as single dose and measured upto 8 hrs by HPLC analysis; assay type: ADME, organism-based; design: dose 50 mg/kg, time < 8 hrs, route po; settings: in vivo
[32] = Microsomal stability in human liver microsomes assessed as mean compound concentration measured after 10 mins in the presence of NADPH-generating system by HPLC analysis (Rvb= 100 ug/ml); assay type: ADME, Microsome

`C[C@]12C[C@@H]3C[C@](C)(C1)C[C@@](NC(=O)Nc1ccc(CN4CCCN(C(=O)CC5CCN(CCO)CC5)CC4)cc1F)(C3)C2` showed an IC50 [1] of 0.61 nM and an IC50 [2] of 4.69 nM.

For `CCN(CC)CCN1CCC(CC(=O)N2CCCN(Cc3ccc(NC(=O)N[C@@]45C[C@@H]6C[C@@](C)(C[C@@](C)(C6)C4)C5)c(F)c3)CC2)CC1`, the IC50 [1] was 1.37 nM and the IC50 [2] was 2.1 nM.

Work on `COC(=O)N1CCC(CC(=O)N2CCCN(Cc3ccc(NC(=O)N[C@@]45C[C@@H]6C[C@@](C)(C[C@@](C)(C6)C4)C5)c(F)c3)CC2)CC1` yielded an IC50 [1] of 0.41 nM and an IC50 [2] of 1.1 nM.

`CN(C)CCN1CCC(CC(=O)N2CCCN(Cc3ccc(NC(=O)N[C@@]45C[C@@H]6C[C@@](C)(C[C@@](C)(C6)C4)C5)c(F)c3)CC2)CC1` gave an IC50 [1] of 0.67 nM and an IC50 [2] of 2.59 nM.

Work on `CCC(=O)N1CCCN(C(=O)C2CCCN(Cc3ccc(NC(=O)N[C@@]45C[C@@H]6C[C@@](C)(C[C@@](C)(C6)C4)C5)c(F)c3)C2)CC1` (some centres not stated) yielded a Vz [3] of 2.39 L/kg, an Activity [4] of 12.5% and a t1/2 [5] of 3.7 h. For the same compound, the Activity [6] was “Non-Toxic”, the Stability [7] was 75.04 µg/mL and the Cmax [8] was 3.77 nM. For the same compound, the Vz [9] was 13.12 L/kg, the Activity [10] was 37.5% and the AUC [11] was 6.13 nM·h. For the same compound, the Activity [12] was “Non-Toxic”, the t1/2 [13] was 5.55 h and the t1/2 [14] was 3.15 h. The F [15] was 20.85%, the CL [16] was 0.29 L/h/kg and the Stability [17] was 62.01 µg/mL. The CL [18] was 1.7 L/h/kg, the Cmax [19] was 2.92 nM and the IC50 [1] was 0.14 nM. It also gave a PPB [20] of 72.57%, a Tmax [21] of 1.8 min and an AUC [22] of 10.15 nM·h. It also gave an IC50 [2] of 0.05 nM, a t1/2 [23] of 5.72 h and an Activity (Mus musculus [24]) of 4.25. The Stability [25] was 74.76 µg/mL, the Stability [26] was 66.63 µg/mL and the Activity (Mus musculus [27]) was 3.5. The AUC [28] was 11.47 nM·h, the Tmax [29] was 0.25 h and the Stability [30] was 68.78 µg/mL. For the same compound, the AUC [31] was 6.39 nM·h and the Stability [32] was 81.12 µg/mL.

`C[C@]12C[C@@H]3C[C@](C)(C1)C[C@@](NC(=O)Nc1ccc(CN4CCCN(C(=O)CC5CCN(CC(O)CO)CC5)CC4)cc1F)(C3)C2` (some centres not stated) showed an IC50 [1] of 1.25 nM and an IC50 [2] of 58.1 nM.
